These results are taken from patent publication US6458813B1, “Substituted pyridine compounds and methods of use” (Amgen Inc., priority 1997, dated 2002).

The first test relates to production of tumor necrosis factor (TNF) by monocytes activated with bacterial lipopolysaccharide (LPS). The test is described as follows: Lipopolysaccharide-activated monocyte TNF production assay. To be noted: Homo sapiens, adherent monocytes from PBMCs, 60 min with compound, then LPS 4 hrs, TNF in supernatants by ELISA, read-out: IC50 (concentration of test compounds causing a 50% reduction in TNF production). It is filed as cell-based. Here is the method:
Lipopolysaccharide-activated monocyte TNF production assay
Test compounds were evaluated in vitro for the ability to inhibit the production of tumor necrosis factor (TNF) by monocytes activated with bacterial lipopolysaccharide (LPS). Fresh residual source leukocytes (a byproduct of plateletpheresis) were obtained from a local blood bank, and peripheral blood mononuclear cells (PBMCs) were isolated by density gradient centrifugation on Ficol-Paque Plus (Pharmacia). PBMCs were suspended at 2×10^6/ml in DMEM supplemented to contain 2% FCS, 10 mM, 0.3 mg/ml […], 100 U/ml penicillin G and […] streptomycin sulfate (complete media). Cells were plated into Falcon flat bottom, 96 well culture plates (200 μl/well) and cultured overnight at 37° C. and 6% CO2. Non-adherent cells were removed by washing with 200 μl/well of fresh medium. Wells containing adherent cells (˜70% monocytes) were replenished with 100 μl of fresh medium.
Preparation of test compound stock solutions
Test compounds were dissolved in DMSO. Compound stock solutions were prepared to an initial concentration of […]. Stocks were diluted initially to 20-200 μM in complete media. Nine two-fold serial dilutions of each compound were then prepared in complete medium.
Treatment of cells with test compounds and activation of TNF production with lipopolysaccharide
One hundred microliters of each test compound dilution were added to microtiter wells containing adherent monocytes and 100 μl complete medium. Monocytes were cultured with test compounds for 60 min at which time 25 μl of complete medium containing 30 ng/ml lipopolysaccharide from E. coli K532 were added to each well. Cells were cultured an additional 4 hrs. Culture supernatants were then removed and TNF presence in the supernatants was quantified using an ELISA.
Flat bottom, 96 well Corning High Binding ELISA plates were coated overnight (4° C.) with 150 μL/well of 3 μg/ml murine anti-human TNF-α MAb (R&D Systems #MAB210). Wells were then blocked for 1 hr at room temperature with 200 μL/well of CaCl2-free ELISA buffer supplemented to contain 20 mg/ml BSA (standard ELISA buffer: […], 150 mM NaCl, 2 mM CaCl2, 0.15 mM thimerosal, pH 7.4). Plates were washed and replenished with 100 μl of test supernatants (diluted 1:3) or standards. Standards consisted of eleven 1.5-fold serial dilutions from a stock of 1 ng/ml recombinant human TNF (R&D Systems). Plates were incubated at room temperature for 1 hr on orbital shaker (300 rpm), washed and replenished with 100 μl/well of 0.5 μg/ml goat anti-human TNF-α (R&D systems #AB-210-NA) biotinylated at a 4:1 ratio. Plates were incubated for 40 min, washed and replenished with 100 μl/well of alkaline phosphatase-conjugated streptavidin (Jackson ImmunoResearch #016-050-084) at 0.02 μg/ml. Plates were incubated 30 min, washed and replenished with 200 μl/well of 1 mg/ml of p-nitrophenyl phosphate. After 30 min, plates were read at 405 nm on a Vmax plate reader.
Standard curve data were fit to a second order polynomial and unknown TNF-α concentrations determined from their OD by solving this equation for concentration. TNF concentrations were then plotted vs. test compound concentration using a second order polynomial. This equation was then used to calculate the concentration of test compounds causing a 50% reduction in TNF production.
`Cc1ccccc1C(=O)Nc1ccc(NC2CCCCC2C)nc1` (centres unmarked) [2-(2-methylcyclohexylamino)-5-(2-methylphenylcarbonylamino)pyridine]: the IC50 was less than 15 µM. As to `Cc1ccc(Oc2ccc(NC(=O)c3c(C)cccc3C)cn2)c(C)c1` [2-(2,4-dimethylphenoxy)-5-(2,6-dimethylphenylcarbonylamino)pyridine], the IC50 was less than 15 µM. On to `Cc1cccc(C)c1C(=O)Nc1ccc(Oc2ccc(Cl)cc2)nc1` [2-(4-chlorophenoxy)-5-(2,6-dimethylphenylcarbonylamino) pyridine], for which the IC50 was less than 15 µM. In the case of `CC1CCCCC1Nc1ccc(NC(=O)c2c(Cl)cccc2Cl)cn1` (centres unmarked) [2-(2-methylcyclohexylamino)-5-(2,6-dichlorophenylcarbonylamino)pyridine], the IC50 was less than 15 µM.

Turning to `Cc1ncccc1Oc1ccc(NC(=O)c2c(Cl)cccc2Cl)cn1` [2-(2-methyl-3-pyridyloxy)-5-(2,6-dichlorophenylcarbonylamino)pyridine], the IC50 was less than 15 µM. Still for that read-out and setting: then `Cc1cc(Cl)ccc1Oc1ccc(NC(=O)c2ccccc2Cl)cn1` [2-(2-methyl-4-chlorophenoxy)-5-(2-chlorophenylcarbonylamino)pyridine], with less than 15 µM; and `Cc1cccc(C)c1C(=O)Nc1ccc(NC2CCCCC2)nc1` [2-cyclohexylamino-5-(2,6-dimethylphenylcarbonylamino) pyridine], with less than 15 µM. The same measure, in the same setting: under `Cc1cccc(C)c1C(=O)Nc1ccc(OC2CCCCC2)nc1` [2-cyclohexyloxy-5-(2,6-dimethylphenylcarbonylamino) pyridine] stands less than 15 µM; under `Cc1cc(F)ccc1Oc1ccc(NC(=O)c2c(C)cccc2C)cn1` [2-(2-methyl-4-fluorophenoxy)-5-(2,6-dimethylphenylcarbonylamino)pyridine], less than 15 µM.

For the compound `Cc1cc(F)ccc1Oc1ccc(NC(=O)c2ccccc2C)cn1` [2-(2-methyl-4-fluorophenoxy)-5-(2-methylphenylcarbonylamino)pyridine], the IC50 is less than 15 µM. The same measure, in the same setting: then `Cc1ccccc1NC(=O)c1ccc(Nc2ccc(Cl)cc2C)nc1` [2-(2-methyl-4-chlorophenylamino)-5-(2-methylphenylaminocarbonyl)pyridine], with less than 15 µM; and `Cc1cc(Cl)ccc1Oc1ccc(NC(=O)c2c(Cl)cccc2Cl)cn1` [2-(2-methyl-4-chlorophenoxy)-5-(2,6-dichlorophenylcarbonylamino)pyridine], with less than 15 µM. As for `Cc1ccccc1Nc1ccc(NC(=O)c2ccccc2C)cn1` [2-(2-methylphenylamino)-5-(2-methylphenylcarbonylamino)pyridine], the IC50 was less than 15 µM. On the same count and under the same terms, then `Cc1cc(Cl)ccc1Oc1ccc(NC(=O)c2c(C)cccc2C)cn1` [2-(2-methyl-4-chlorophenoxy)-5-(2,6-dimethylphenylcarbonylamino)pyridine], with less than 15 µM. Same read-out and setting: under `Cc1cc(Cl)ccc1Oc1ccc(NC(=O)c2c(C)noc2C)cn1` [2-(2-methyl-4-chlorophenoxy)-5-((3,5-dimethyl-4-isoxazolyl)carbonylamino)pyridine] stands less than 15 µM. Take `O=C(Nc1ccc(Oc2cccc3ccccc23)nc1)c1c(Cl)cccc1Cl` [2-(1-naphthyloxy)-5-(2,6-dichlorophenylcarbonylamino) pyridine]: the IC50 is less than 15 µM.

Take `Cc1cc(Cl)ccc1Nc1ccc(NC(=O)c2ccccc2C)cn1` [2-(2-methyl-4-chlorophenylamino)-5-(2-methylphenylcarbonylamino)pyridine]: the IC50 was less than 15 µM. The same measure, in the same setting: under `O=C(Nc1ccc(NC2CCCCC2)nc1)c1c(Cl)cccc1Cl` [2-cyclohexylamino-5-(2,6-dichlorophenylcarbonylamino) pyridine] stands less than 15 µM. Same read-out and setting: then `Cc1ccc(Oc2ccc(NC(=O)c3ccccc3C)cn2)c(C)c1` [2-(2,4-dimethylphenoxy)-5-(2-methylphenylcarbonylamino) pyridine], with less than 15 µM; and `Cc1cc(F)ccc1Oc1ccc(NC(=O)c2c(Cl)cccc2Cl)cn1` [2-(2-methyl-4-fluorophenoxy)-5-(2,6-dichlorophenylcarbonylamino)pyridine], with less than 15 µM; and `Cc1ccccc1Nc1ccc(NC(=O)c2c(C)cccc2C)cn1` [2-(2-methylphenylamino)-5-(2,6-dimethylphenylcarbonylamino)pyridine], with less than 15 µM. The same measure, in the same setting: under `O=C(Nc1ccc(OC2CCCCC2)nc1)c1ccccc1Cl` [2-cyclohexyloxy-5-(2-chlorophenylcarbonylamino)pyridine] stands less than 15 µM. In the case of `O=C(Nc1ccc(OC2CCCCC2)nc1)c1c(Cl)cccc1Cl` [2-cyclohexyloxy-5-(2,6-dichlorophenylcarbonylamino) pyridine], the IC50 was less than 15 µM. Consider `Cc1cc(F)ccc1Oc1ccc(NC(=O)c2ccccc2F)cn1` [2-(2-methyl-4-fluorophenoxy)-5-(2-fluorophenylcarbonylamino)pyridine], for which the IC50 was less than 15 µM. As to `Cc1ccccc1C(=O)Nc1ccc(OC2CCCCC2)nc1` [2-cyclohexyloxy-5-(2-methylphenylcarbonylamino)pyridine], the IC50 was less than 15 µM.

A further test has as its system Cyclooxygenase enzyme (COX-1 and COX-2). Nature of the test: Cyclooxygenase Enzyme Activity Assay (isoform not stated for the result). It is filed as cell-based, human. To be noted: COX-1 (THP-1) / COX-2 (HOSC) cell assays, PGE2 ELISA. Here is the method: Cyclooxygenase Enzyme Activity Assay
The human monocytic leukemia cell line, THP-1, differentiated by exposure to phorbol esters expresses only COX-1; the human osteosarcoma cell line 143B expresses predominantly COX-2. THP-1 cells are routinely cultured in RPMI complete media supplemented with 10% FBS and human osteosarcoma cells (HOSC) are cultured in minimal essential media supplemented with 10% fetal bovine serum (MEM-10%FBS); all cell incubations are at 37° C. in a humidified environment containing 5% CO2.
In preparation for the COX-1 assay, THP-1 cells are grown to confluency, split 1:3 into RPMI containing 2% FBS and […] phorbol 12-myristate 13-acetate (TPA), and incubated for 48 hours on a shaker to prevent attachment. […] Arachidonic acid is added to a final concentration of […], the cells incubated for 20 minutes at 37° C., and enzyme activity determined as described below. […]
After incubation with arachidonic acid, the reactions are stopped by the addition of 1 N HCl, followed by neutralization with 1 N NaOH and centrifugation to pellet cell debris. Cyclooxygenase enzyme activity in both HOSC and THP-1 cell supernatants is determined by measuring the concentration of PGE2 using a commercially available ELISA (Neogen #404110). […]
Compound `Cc1ccc(Nc2ccc(NC(=O)c3c(Cl)cccc3Cl)cn2)c(C)c1` [2-(2,4-dimethylphenylamino)-5-(2,6-dichlorophenylcarbonylamino)pyridine] returned an IC50 not above 10 µM.
